Where two headings read alike, the source gives them in different places.
Tests used:
[1] = tested on: Immature castrated male Sprague Dawley rats; ventral prostate and levator ani; assay: Ventral Prostate and Levator Ani Weight In Vivo Assay (agonist activity, percent stimulation of tissue weight); set-up: species or system rat; key to % Prostate Stimulation: level 1 agonist active if it produced greater than or equal to 30% stimulation of levator ani or ventral prostate at 30 mg/kg; level 2 agonist active if it produced greater than or equal to 5% but less than 30% stimulation of levator ani or ventral prostate at 30 mg/kg; listed herein as “inactive” as they did not meet the specified criteria defined above; settings: once daily for five days, oral, vehicle = 0%, testosterone alone = 100%, classes defined at 30 mg/kg; for change in vivo at 30 mg/kg: Rattus norvegicus, 120 h
Method: Ventral Prostate and Levator Ani Weight In Vivo Assay
(§1) Immature (approximately 50 g) castrated male Sprague Dawley rats (Charles River) were treated once daily for five days with test compound (usually given orally at 40 mg/kg in a volume of 0.3 mL, in 30% cyclodextrin or 0.5% methylcellulose vehicle) and with testosterone propionate (given subcutaneously by injection at the nape of the neck at 2 mg/kg, in a volume of 0.1 mL in sesame oil). On the sixth day, the rats were euthanized by asphyxiation in carbon dioxide. Ventral prostates and levator ani muscles were removed and their wet weights determined.
Test compound activity was determined as the percent stimulation of tissue weight, with the vehicle-treated control group set to zero percent and the testosterone alone-treated control group set to 100%. A compound was designated as level 1 agonist active if it produced greater than or equal to 30% stimulation of levator ani or ventral prostate at 30 mg/kg. A compound was designated as level 2 agonist active if it produced greater than or equal to 5% but less than 30% stimulation of levator ani or ventral prostate at 30 mg/kg.
Representative compounds of the present invention were tested according to the procedure described, with results as listed in Table 3 below.

[2] = tested on: Immature castrated male Sprague Dawley rats; ventral prostate and seminal vesicle; assay: Ventral Prostate and Seminal Vesicle Weight In Vivo Assay (antagonist activity, percent inhibition of testosterone-enhanced tissue weights); set-up: species or system rat; key to Inhibition of prostate (non-weight prostate weight, mg): level 1 agonist active if it produced greater than or equal to 30% stimulation of levator ani or ventral prostate at 30 mg/kg; level 2 agonist active if it produced greater than or equal to 5% but less than 30% stimulation of levator ani or ventral prostate at 30 mg/kg; listed herein as “inactive” as they did not meet the specified criteria defined above; settings: compound oral once daily for five days with testosterone propionate 2 mg/kg s.c., classes defined at 30 mg/kg; for inhibition in vivo at 30 mg/kg: Rattus norvegicus, 120 h
Method: Ventral Prostate and Seminal Vesicle Weight In Vivo Assay
as §1, with “([…],” for “(usually given orally at 40 mg/kg in a volume of 0.3 mL,”, “prosatates” for “prostates”, “seminal vesicles” for “levator ani muscles”, “determined. Test compound activity was determined as the percent inhibition of testosterone-enhanced tissue weights, with a vehicle-treated control group set to zero percent and a testosterone alone-treated control group set to 100%.” for “determined.”
Representative compounds of the present invention were tested according to the procedure described, with results as listed in Table 4 below.

[3] = seminal vesicle wet weight, read-out: Inhibition of seminal vesicle (non-weight seminal vesicle weight, mg)
[4] = ventral prostate wet weight, read-out: Inhibition of prostate (non-weight prostate weight, mg)
[5] = levator ani wet weight, read-out: % levator ani Stimulation
[6] = ventral prostate wet weight, read-out: % Prostate Stimulation

SMILES: CC12COC(=O)N1C(=O)N(c1ccc(Cl)c(C(F)(F)F)c1)C2=O (centres unmarked) [Compound 12, 6-(4-Chloro-3-trifluoromethyl-phenyl)-7a-methyl-dihydro-imidazo[1,5-c]oxazole-3,5,7-trione]
- % levator ani Stimulation ([1]; levator ani wet weight): Inactive
- % Prostate Stimulation ([1]; ventral prostate wet weight): inactive
- inhibition in vivo at 30 mg/kg [2, 3]: 5 to 30%
- inhibition in vivo at 30 mg/kg [2, 4]: 5 to 30%

SMILES: CC(=O)Nc1ccc(C2=NN3C(=O)N(c4ccc(C#N)c(C(F)(F)F)c4)C(=O)C3(C)C2)cc1 (centres unmarked) [Compound 7, N-{4-[5-(4-Cyano-3-trifluoromethyl-phenyl)-3a-methyl-4,6-dioxo-3a,4,5,6-tetrahydro-3H-imidazo[1,5-b]pyrazol-2-yl]-phenyl}-acetamide]
- change in vivo at 30 mg/kg [1, 5]: 5 to 30%
- change in vivo at 30 mg/kg [1, 6]: 5 to 30%
- inhibition in vivo at 30 mg/kg [2, 4]: 5 to 30%
- Inhibition of seminal vesicle (non-weight seminal vesicle weight, mg) ([2]; seminal vesicle wet weight): Inactive

SMILES: CC12CC(C(F)(F)F)=NN1C(=O)N(c1ccc(C#N)c(C(F)(F)F)c1)C2=O (centres unmarked) [Compound 1, 4-(3a-Methyl-4,6-dioxo-2-trifluoromethyl-3a,4-dihydro-3H-imidazo[1,5-b]pyrazol-5-yl)-2-trifluoromethyl-benzonitrile]
- change in vivo at 30 mg/kg [1, 5]: ≥ 30%
- change in vivo at 30 mg/kg [1, 6]: 5 to 30%
- inhibition in vivo at 30 mg/kg [2, 3]: 5 to 30%
- inhibition in vivo at 30 mg/kg [2, 4]: 5 to 30%

SMILES: C[C@@]12CC(C(F)(F)F)=NN1C(=O)N(c1ccc(C#N)c(C(F)(F)F)c1)C2=O [Compound 3, (S)-4-(3a-Methyl-4,6-dioxo-2-trifluoromethyl-3a,4-dihydro-3H-imidazo[1,5-b]pyrazol-5-yl)-2-trifluoromethyl-benzonitrile]
- change in vivo at 30 mg/kg [1, 5]: ≥ 30%
- change in vivo at 30 mg/kg [1, 6]: ≥ 30%
- inhibition in vivo at 30 mg/kg [2, 3]: 5 to 30%
- inhibition in vivo at 30 mg/kg [2, 4]: 5 to 30%

SMILES: C[C@]12CC(C(F)(F)F)=NN1C(=O)N(c1ccc(C#N)c(C(F)(F)F)c1)C2=O [Compound 2, (R)-4-(3a-Methyl-4,6-dioxo-2-trifluoromethyl-3a,4-dihydro-3H-imidazo[1,5-b]pyrazol-5-yl)-2-trifluoromethyl-benzonitrile]
- change in vivo at 30 mg/kg [1, 5]: ≥ 30%
- change in vivo at 30 mg/kg [1, 6]: 5 to 30%
- inhibition in vivo at 30 mg/kg [2, 3]: 5 to 30%
- inhibition in vivo at 30 mg/kg [2, 4]: 5 to 30%

SMILES: C[C@@]12CC(C(F)(F)F)=NN1S(=O)(=O)N(c1ccc(C#N)c(C(F)(F)F)c1)C2=O [Compound 11, 4-(3a-Methyl-1,1,3-trioxo-5-trifluoromethyl-3a,4-dihydro-3H-1I6-thia-2,6,6a-triaza-pentalen-2-yl)-2-trifluoromethyl-benzonitrile]
- change in vivo at 30 mg/kg [1, 5]: ≥ 30%
- change in vivo at 30 mg/kg [1, 6]: ≥ 30%
- inhibition in vivo at 30 mg/kg [2, 3]: 5 to 30%
- inhibition in vivo at 30 mg/kg [2, 4]: 5 to 30%

SMILES: CCOC(=O)C1=NN2C(=O)N(c3ccc([N+](=O)[O-])c(C(F)(F)F)c3)C(=O)C2(C)C1 (centres unmarked) [Compound 6, 3a-Methyl-5-(4-nitro-3-trifluoromethyl-phenyl)-4,6-dioxo-3a,4,5,6-tetrahydro-3H-imidazo[1,5-b]pyrazole-2-carboxylic acid ethyl ester]
- % levator ani Stimulation ([1]; levator ani wet weight): Inactive
- % Prostate Stimulation ([1]; ventral prostate wet weight): inactive
- inhibition in vivo at 30 mg/kg [2, 3]: 5 to 30%
- inhibition in vivo at 30 mg/kg [2, 4]: 5 to 30%

SMILES: CC12CNC(=O)N1C(=O)N(c1ccc(Cl)c(C(F)(F)F)c1)C2=O (centres unmarked) [Compound 13, 2-(4-Chloro-3-trifluoromethyl-phenyl)-7a-methyl-dihydro-imidazo[1,5-c]imidazole-1,3,5-trione]
- % levator ani Stimulation ([1]; levator ani wet weight): Inactive
- % Prostate Stimulation ([1]; ventral prostate wet weight): inactive
- inhibition in vivo at 30 mg/kg [2, 3]: ≥ 30%
- inhibition in vivo at 30 mg/kg [2, 4]: ≥ 30%

SMILES: CC12CC=NN1C(=O)N(c1ccc(C#N)c(C(F)(F)F)c1)C2=O (centres unmarked) [Compound 4, 4-(3a-Methyl-4,6-dioxo-3a,4-dihydro-3H-imidazo[1,5-b]pyrazol-5-yl)-2-trifluoromethyl-benzonitrile]
- % levator ani Stimulation ([1]; levator ani wet weight): Inactive
- % Prostate Stimulation ([1]; ventral prostate wet weight): inactive
- inhibition in vivo at 30 mg/kg [2, 3]: 5 to 30%
- inhibition in vivo at 30 mg/kg [2, 4]: 5 to 30%

SMILES: C[C@@]12CC(C(F)(F)F)=NN1[S+]([O-])N(c1ccc(C#N)c(C(F)(F)F)c1)C2=O (stereo partly drawn) [Compound 10, (S)-4-(3a-Methyl-1,3-dioxo-5-trifluoromethyl-3a,4-dihydro-3H-1I4-thia-2,6,6a-triaza-pentalen-2-yl)-2-trifluoromethyl-benzonitrile]
- change in vivo at 30 mg/kg [1, 5]: ≥ 30%
- change in vivo at 30 mg/kg [1, 6]: ≥ 30%
- inhibition in vivo at 30 mg/kg [2, 3]: 5 to 30%
- inhibition in vivo at 30 mg/kg [2, 4]: ≥ 30%

SMILES: CCOC(=O)C1=NN2C(=O)C(=O)N(c3ccc(C#N)c(C(F)(F)F)c3)C(=O)C2(C)C1 (centres unmarked) [Compound 8, 5-(4-Cyano-3-trifluoromethyl-phenyl)-3a-methyl-4,6,7-trioxo-3,3a,4,5,6,7-hexahydro-pyrazolo[1,5-a]pyrazine-2-carboxylic acid ethyl ester]
- change in vivo at 30 mg/kg [1, 5]: 5 to 30%
- % Prostate Stimulation ([1]; ventral prostate wet weight): inactive
- inhibition in vivo at 30 mg/kg [2, 3]: 5 to 30%
- Inhibition of prostate (non-weight prostate weight, mg) ([2]; ventral prostate wet weight): inactive

SMILES: CCOC(=O)C1=NN2C(=O)N(c3ccc(C#N)c(C(F)(F)F)c3)C(=O)C2(C)C1 (centres unmarked) [Compound 5, 5-(4-Cyano-3-trifluoromethyl-phenyl)-3a-methyl-4,6-dioxo-3a,4,5,6-tetrahydro-3H-imidazo[1,5-b]pyrazole-2-carboxylic acid ethyl ester]
- % levator ani Stimulation ([1]; levator ani wet weight): Inactive
- % Prostate Stimulation ([1]; ventral prostate wet weight): inactive
- inhibition in vivo at 30 mg/kg [2, 3]: 5 to 30%
- inhibition in vivo at 30 mg/kg [2, 4]: 5 to 30%

SMILES: CN1CC2(C)C(=O)N(c3ccc(Cl)c(C(F)(F)F)c3)C(=O)N2C1=O (centres unmarked) [Compound 16, 2-(4-Chloro-3-trifluoromethyl-phenyl)-6,7a-dimethyl-dihydro-imidazo[1,5-c]imidazole-1,3,5-trione]
- % levator ani Stimulation ([1]; levator ani wet weight): Inactive
- % Prostate Stimulation ([1]; ventral prostate wet weight): inactive
- inhibition in vivo at 30 mg/kg [2, 3]: ≥ 30%
- inhibition in vivo at 30 mg/kg [2, 4]: ≥ 30%

SMILES: CC12CNC(=O)N1C(=O)N(c1ccc(C#N)c(C(F)(F)F)c1)C2=O (centres unmarked) [Compound 15, 4-(7a-Methyl-1,3,5-trioxo-tetrahydro-imidazo[1,5-c]imidazol-2-yl)-2-trifluoromethyl-benzonitrile]
- % levator ani Stimulation ([1]; levator ani wet weight): Inactive
- % Prostate Stimulation ([1]; ventral prostate wet weight): inactive
- inhibition in vivo at 30 mg/kg [2, 3]: ≥ 30%
- inhibition in vivo at 30 mg/kg [2, 4]: ≥ 30%

Reference: US8097730B2, “Bicyclic heterocycles useful as selective androgen receptor modulators” (Janssen Pharmaceutica N.V., priority 2006, dated 2012)
